Experimental data reported in the NIST ThermoML archive (doi:10.1016/j.jct.2013.01.013).

Assay: xn = mol fraction of the nth substance listed
Details: 101 kPa, Liquid; for viscosity: Capillary tube (Ostwald / Ubbelohde) method; for speed of sound: Linear variable-path acoustic interferometer; for mass density: Pycnometric method

C=C(C)C(=O)OC [methyl methacrylate] + CN(C)C=O
Details | mass density [kg/m3] | speed of sound [m/s] | viscosity [mPa·s]
288.15 K, x1 = 0.0696 | 953.35 | 1484.1 | 0.905
288.15 K, x1 = 0.1417 | 953.07 | 1464.4 | 0.868
288.15 K, x1 = 0.211 | 952.8 | 1445.5 | 0.8355
288.15 K, x1 = 0.2855 | 952.5 | 1425.2 | 0.8041
288.15 K, x1 = 0.3573 | 952.22 | 1405.4 | 0.7765
288.15 K, x1 = 0.4308 | 951.91 | 1384.8 | 0.7513
288.15 K, x1 = 0.5042 | 951.58 | 1363.9 | 0.729
288.15 K, x1 = 0.578 | 951.23 | 1342.6 | 0.7083
288.15 K, x1 = 0.6552 | 950.86 | 1320 | 0.6885
288.15 K, x1 = 0.7204 | 950.53 | 1300.7 | 0.6742
288.15 K, x1 = 0.7873 | 950.19 | 1280.7 | 0.6612
288.15 K, x1 = 0.8548 | 949.84 | 1260.4 | 0.6505
288.15 K, x1 = 0.9268 | 949.47 | 1238.7 | 0.6417
288.15 K, x1 = 1 | 949.1 | 1216.8 | 0.634
293.15 K, x1 = 0.0696 | 948.76 | 1466.8 | 0.834
293.15 K, x1 = 0.1417 | 948.39 | 1447.2 | 0.8009
293.15 K, x1 = 0.211 | 948.03 | 1428.4 | 0.7713
293.15 K, x1 = 0.2855 | 947.64 | 1408.2 | 0.742
293.15 K, x1 = 0.3573 | 947.25 | 1388.5 | 0.717
293.15 K, x1 = 0.4308 | 946.85 | 1368 | 0.6941
293.15 K, x1 = 0.5042 | 946.43 | 1347.2 | 0.6736
293.15 K, x1 = 0.578 | 946 | 1326 | 0.6552
293.15 K, x1 = 0.6552 | 945.53 | 1303.5 | 0.6382
293.15 K, x1 = 0.7204 | 945.13 | 1284.3 | 0.6261
293.15 K, x1 = 0.7873 | 944.72 | 1264.4 | 0.6149
293.15 K, x1 = 0.8548 | 944.29 | 1244.1 | 0.6055
293.15 K, x1 = 0.9268 | 943.83 | 1222.5 | 0.598
293.15 K, x1 = 1 | 943.37 | 1200.5 | 0.5903
298.15 K, x1 = 0.0696 | 944.17 | 1450 | 0.7818
298.15 K, x1 = 0.1417 | 943.71 | 1430.6 | 0.7509
298.15 K, x1 = 0.211 | 943.26 | 1411.8 | 0.7233
298.15 K, x1 = 0.2855 | 942.77 | 1391.5 | 0.6958
298.15 K, x1 = 0.3573 | 942.29 | 1371.8 | 0.672
298.15 K, x1 = 0.4308 | 941.79 | 1351.3 | 0.651
298.15 K, x1 = 0.5042 | 941.28 | 1330.4 | 0.632
298.15 K, x1 = 0.578 | 940.76 | 1309.2 | 0.6151
298.15 K, x1 = 0.6552 | 940.21 | 1286.7 | 0.6
298.15 K, x1 = 0.7204 | 939.73 | 1267.4 | 0.5885
298.15 K, x1 = 0.7873 | 939.24 | 1247.4 | 0.5786
298.15 K, x1 = 0.8548 | 938.74 | 1227.1 | 0.57
298.15 K, x1 = 0.9268 | 938.19 | 1205.3 | 0.5625
298.15 K, x1 = 1 | 937.63 | 1183.6 | 0.5544
303.15 K, x1 = 0.0696 | 939.58 | 1430.3 | 0.737
303.15 K, x1 = 0.1417 | 939.03 | 1411.3 | 0.7088
303.15 K, x1 = 0.211 | 938.49 | 1393 | 0.683
303.15 K, x1 = 0.2855 | 937.9 | 1373.1 | 0.6568
303.15 K, x1 = 0.3573 | 937.33 | 1353.7 | 0.6346
303.15 K, x1 = 0.4308 | 936.73 | 1333.6 | 0.6148
303.15 K, x1 = 0.5042 | 936.13 | 1313.1 | 0.5972
303.15 K, x1 = 0.578 | 935.52 | 1292.3 | 0.5817
303.15 K, x1 = 0.6552 | 934.88 | 1270.3 | 0.5675
303.15 K, x1 = 0.7204 | 934.33 | 1251.4 | 0.5575
303.15 K, x1 = 0.7873 | 933.76 | 1231.8 | 0.5486
303.15 K, x1 = 0.8548 | 933.19 | 1211.8 | 0.5408
303.15 K, x1 = 0.9268 | 932.55 | 1190.4 | 0.5331
303.15 K, x1 = 1 | 931.89 | 1168.5 | 0.5251
308.15 K, x1 = 0.0696 | 934.99 | 1411 | 0.694
308.15 K, x1 = 0.1417 | 934.35 | 1392.3 | 0.6678
308.15 K, x1 = 0.211 | 933.72 | 1374.3 | 0.6435
308.15 K, x1 = 0.2855 | 933.03 | 1354.7 | 0.6191
308.15 K, x1 = 0.3573 | 932.36 | 1335.6 | 0.5978
308.15 K, x1 = 0.4308 | 931.67 | 1315.7 | 0.5793
308.15 K, x1 = 0.5042 | 930.98 | 1295.5 | 0.563
308.15 K, x1 = 0.578 | 930.28 | 1275 | 0.5488
308.15 K, x1 = 0.6552 | 929.55 | 1253.3 | 0.5358
308.15 K, x1 = 0.7204 | 928.93 | 1234.7 | 0.5268
308.15 K, x1 = 0.7873 | 928.28 | 1215.4 | 0.5188
308.15 K, x1 = 0.8548 | 927.63 | 1195.7 | 0.5113
308.15 K, x1 = 0.9268 | 926.91 | 1174.4 | 0.5038
308.15 K, x1 = 1 | 926.15 | 1152.6 | 0.496
313.15 K, x1 = 0.0696 | 930.4 | 1393.7 | 0.662
313.15 K, x1 = 0.1417 | 929.67 | 1375.1 | 0.6373
313.15 K, x1 = 0.211 | 928.95 | 1357.1 | 0.6142
313.15 K, x1 = 0.2855 | 928.16 | 1337.5 | 0.5913
313.15 K, x1 = 0.3573 | 927.4 | 1318.4 | 0.5713
313.15 K, x1 = 0.4308 | 926.61 | 1298.4 | 0.5529
313.15 K, x1 = 0.5042 | 925.83 | 1278.3 | 0.5375
313.15 K, x1 = 0.578 | 925.04 | 1257.9 | 0.5237
313.15 K, x1 = 0.6552 | 924.22 | 1236.2 | 0.5115
313.15 K, x1 = 0.7204 | 923.53 | 1217.7 | 0.503
313.15 K, x1 = 0.7873 | 922.81 | 1198.4 | 0.4951
313.15 K, x1 = 0.8548 | 922.07 | 1178.7 | 0.4875
313.15 K, x1 = 0.9268 | 921.26 | 1157.4 | 0.4796
313.15 K, x1 = 1 | 920.41 | 1135.4 | 0.4723
318.15 K, x1 = 0.0696 | 925.81 | 1375.2 | 0.6419
318.15 K, x1 = 0.1417 | 924.99 | 1356.8 | 0.6179
318.15 K, x1 = 0.211 | 924.18 | 1338.9 | 0.5953
318.15 K, x1 = 0.2855 | 923.29 | 1319.4 | 0.5728
318.15 K, x1 = 0.3573 | 922.44 | 1300.3 | 0.553
318.15 K, x1 = 0.4308 | 921.55 | 1280.5 | 0.5345
318.15 K, x1 = 0.5042 | 920.68 | 1260.5 | 0.5185
318.15 K, x1 = 0.578 | 919.8 | 1240.2 | 0.5045
318.15 K, x1 = 0.6552 | 918.89 | 1218.7 | 0.4925
318.15 K, x1 = 0.7204 | 918.12 | 1200.3 | 0.4837
318.15 K, x1 = 0.7873 | 917.33 | 1181.2 | 0.475
318.15 K, x1 = 0.8548 | 916.51 | 1161.6 | 0.467
318.15 K, x1 = 0.9268 | 915.61 | 1140.4 | 0.4583
318.15 K, x1 = 1 | 914.66 | 1118.3 | 0.4499
